We go through two compounds from patent US7759326B2, “Aminophosphonic acid derivative, salt thereof, and modulator of S1P receptor” (Kyorin Pharmaceutical Co., Ltd., priority 2003, dated 2010).

The pEC50 is the negative decadic logarithm of the EC50, by convention in mol/L. The term inhibition in vivo denotes the drop in the measured response relative to a control, in per cent. A lower inhibition in vivo goes with a response near the control.

pEC50: −log10 of the molar value.

Assay [1] has as its target T1, hS1P1 receptors (Homo sapiens, UniProt P21453).
T1 construct: expressed in transfected cells; host or cells: CHO cells (Geneticin-selected)
The assay can be described thus: Intracellular Ca2+ mobilization in CHO cells expressing human S1P receptors (hS1P1). Type of assay: cell-based. As to conditions: read-out: S1P1 (EC50 class, intracellular Ca2+ mobilization). As to the method: (§1) Test for the Ability of Test Compounds to Induce Intracellular Ca^2+ Mobilization in Cells Expressing Human S1P (Sphingosine-1-Phosphate) Receptors
(§2) CHO cells expressing human S1P receptors (i.e., CHO cells expressing hS1P1 receptors or hS1P3 receptors) were subcultured on Ham's F-12 medium supplemented with 10% fetal bovine serum and 200 μg/mL Geneticin. The cells were seeded on a 96-well black clear bottom plate (COSTAR) at 4×10^4 cells/well and were cultured overnight at 37° C. in 5% CO2. A fluorescent reagent that emits fluorescence upon binding to Ca^2+ (Calcium Screening Kit (DOJINDO)) was added to the culture and the cells were further cultured for 60 min at 37° C. in 5% CO2. After culturing, microplate spectrofluorometer (FLEX station, MOLECULAR DEVICE) was used to measure the fluorescence intensity at an excitation wavelength of 485 nm and a detection wavelength of 525 nm. S1P or a test compound adjusted with cultural medium to a concentration 10 times higher than the final concentration (final DMSO concentration=0.1%). Each test compound solution was added 18 sec. after beginning of the measurement of fluorescence. The fluorescence intensity was measured every 1.5 sec for 100 sec. For each test compound, the difference between the maximum fluorescence intensity and the minimum fluorescence intensity (i.e., increase in fluorescence) was determined from the measurements. The rate of fluorescence increase (%) for each test compound was calculated by the difference (100%) of the fluorescence increase between solvent only and S1P (10^−6M). Using this value as an index of the ability of the test compound to induce intracellular Ca^2+ mobilization, EC50 was determined by PRISM software (GraphPad).
On the technique in general: Calcium assays in cells follow changes in intracellular calcium, usually with a dye or a luminescent sensor.

The target in assay [2] is T2, hS1P3 receptors (Homo sapiens, UniProt Q99500).
T2 construct: expressed in transfected cells; host or cells: CHO cells (Geneticin-selected)
The assay can be described thus: Intracellular Ca2+ mobilization in CHO cells expressing human S1P receptors (hS1P3). The class given is cell-based. As to conditions: read-out: S1P3 (EC50 class, intracellular Ca2+ mobilization). The procedure: as §1, §2

Assay [3] concerns the target T3, hS1P4 receptors (Homo sapiens, UniProt O95977).
T3 construct: expressed in transfected cells; host or cells: CHO cells (Geneticin-selected)
T3 sequence (O95977 1-384): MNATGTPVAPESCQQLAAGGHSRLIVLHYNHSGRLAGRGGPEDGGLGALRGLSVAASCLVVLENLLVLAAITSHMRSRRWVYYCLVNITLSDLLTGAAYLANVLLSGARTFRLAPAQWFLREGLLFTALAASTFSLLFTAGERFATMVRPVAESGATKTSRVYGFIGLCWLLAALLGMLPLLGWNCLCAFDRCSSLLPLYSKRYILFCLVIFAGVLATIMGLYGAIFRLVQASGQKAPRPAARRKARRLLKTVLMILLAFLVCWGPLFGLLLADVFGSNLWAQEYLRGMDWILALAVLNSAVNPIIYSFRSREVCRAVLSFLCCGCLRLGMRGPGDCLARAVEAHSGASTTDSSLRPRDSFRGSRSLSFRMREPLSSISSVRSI
The assay can be described thus: Activation of extracellular regulatory kinase (ERK) in CHO cells expressing hS1P4 receptors. The class given is cell-based. The procedure:
Test for the Ability of Test Compounds to Induce Activation of Extracellular Regulatory Kinase (ERK) in Cells Expressing Human S1P Receptors
CHO cells expressing human S1P receptors (i.e., CHO cells expressing hS1P4 receptors) were subcultured on Ham's F-12 medium supplemented with 10% fetal bovine serum and 200 μg/mL Geneticin. The cells were seeded on a 6-well cell culture plate (COSTAR) at 3×10^5 cells/well and were cultured overnight at 37° C. in 5% CO2. On the following day, the medium was replaced with FBS-free Ham's F-12 medium (containing 0.1% fatty acid-free bovine serum albumin) and the cells were cultured overnight at 37° C. in 5% CO2. S1P or a test compound adjusted with Ham's F-12 medium (with 0.1% fatty acid-free bovine serum albumin) to a concentration 10 times higher than the final concentration (final DMSO concentration=0.1%). Each test compound solution was added to this culture plate. The cells were cultured for 5 min at 37° C. in 5% CO2. The medium was removed and the cells were washed with a 200 μmol/L ice-cold PBS containing Na3VO4. A lysis buffer (20 mmol/L Tris-HCl pH 7.5, 1% Triton X-100, 1 mmol/L EDTA, 1 mmol/L EGTA, 0.5 mmol/L Na3VO4, 0.1% β-mercaptoethanol, 50 mmol/L NaF, 5 mmol/L Na4O7P3, 10 mmol/L C3H7O6Na, 1 μmol/L Microcystin LR, 1× Complete Protease Inhibitor Cocktail (ROCHE)) was then added to the cells and the reaction was carried out on ice for 5 min to lyse the cells. The cell lysate was subjected to sodium dodecyl sulfate-polyacrylamide gel electrophoresis (SDS-PAGE) to separate proteins. The proteins were transferred to a PVDF membrane (Hybond-P, Amersham Biosciences). The membrane was reacted overnight at 4° C. with anti-phospho ERK (p42/44 MAPK) monoclonal antibody (E10, Cell Signaling Technologies) diluted 1000-fold, and was subsequently reacted for 1 hour at room temperature with alkaline phosphatase-labeled anti-mouse IgG antibody (Molecular Probe) diluted 6000-fold. After washing with 20 mmol/L Tris-HCl and 150 mmol/L NaCl solution, the PVDF membrane was fluorostained with DDAO phosphate (DyeChrome Western Blot Stain Kit, Molecular Probe), a fluorescent substrate of alkaline phosphatase. The fluorescence was detected using a variable image analyzer (Typhoon 8600, Amersham Biosciences). The detected signal of phosphorylated ERK was quantified using ImageQuant software (Molecular Dynamics). The rate of ERK activation (%) for each test compound was calculated by the difference (100%) of the signal intensity between solvent only and S1P (10^−6 mol/L).

Assay [4] concerns host vs. graft rejection in mice. The assay can be described thus: Inhibitory effects on host vs. graft rejection in mice (right popliteal lymph node weight). Type of assay: in vivo, C3H/HeN mice. As to conditions: Mus musculus. As to the method: Inhibitory Effects of Test Compounds on Host Vs. Graft Rejection in Mice
This experiment was performed according to the method described in Transplantation 55(3) (1993): 578-591. Spleens were collected from 6 to 16 week old male BALB/c mice (CHARLES RIVER JAPAN). The spleens were placed in an RPMI-1640 medium (SIGMA) and were gently pressed between two slide glasses and then passed through a cell strainer (70 μm, Falcon) to form a cell suspension. The suspension was then centrifuged and the supernatant was discarded. An ammonium chloride-Tris isotonic buffer was added to the suspension to lyse erythrocytes. The cells were then centrifuged three times in RPMI-1640 medium for washing and were resuspended in an RPMI-1640 medium. To this suspension, mitomycin C (KYOWA HAKKO KOGYO Co., Ltd.) was added to a final concentration of 25 μg/mL and the suspension was incubated for 30 minutes at 37° C. in a 5% CO2 atmosphere. The cells were centrifuged three times in RPMI-1640 medium for washing and were resuspended in an RPMI-1640 medium so that the medium would contain 2.5×10^8 cells/mL. This suspension served as a “stimulation cell suspension.” Using a 27 G needle with a microsyringe (Hamilton), 20 μL (5×10^6 cells/mouse) of the stimulation cell suspension was subcutaneously injected into the right hind footpad of 6 to 8 week old male C3H/HeN mice (CLEA JAPAN). Normal control group was injected with RPMI-1640 medium alone. 4 days after the injection, right popliteal lymph nodes were collected and were weighed on a Mettler AT201 electronic scale (METTLER TOLEDO Co., Ltd.). Each animal was intraperitoneally administered a test compound once a day for four consecutive days starting on the day of the injection of the stimulation cells (i.e., total of 4 times). Control groups were administered the same vehicle as that used in the preparation of each test compound. The inhibition (%) was determined using the following formula {[Weight of right popliteal lymph nodes of positive control group]−[Weight of right popliteal lymph nodes of test compound group]×100}/{[Weight of right popliteal lymph nodes of positive control group]−[Weight of right popliteal lymph nodes of normal control group]} Formula 1

T1 sequence (P21453 whole entry): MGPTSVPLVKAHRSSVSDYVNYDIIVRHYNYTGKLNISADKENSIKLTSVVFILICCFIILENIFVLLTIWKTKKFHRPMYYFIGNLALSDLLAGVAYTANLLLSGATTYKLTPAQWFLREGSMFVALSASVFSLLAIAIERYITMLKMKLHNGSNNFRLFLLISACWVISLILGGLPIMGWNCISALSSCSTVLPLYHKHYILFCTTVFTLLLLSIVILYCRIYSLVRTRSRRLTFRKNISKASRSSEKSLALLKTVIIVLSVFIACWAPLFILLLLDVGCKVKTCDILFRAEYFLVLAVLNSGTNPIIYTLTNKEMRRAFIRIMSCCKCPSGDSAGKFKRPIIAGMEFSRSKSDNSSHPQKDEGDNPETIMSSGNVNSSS
T2 sequence (Q99500 whole entry): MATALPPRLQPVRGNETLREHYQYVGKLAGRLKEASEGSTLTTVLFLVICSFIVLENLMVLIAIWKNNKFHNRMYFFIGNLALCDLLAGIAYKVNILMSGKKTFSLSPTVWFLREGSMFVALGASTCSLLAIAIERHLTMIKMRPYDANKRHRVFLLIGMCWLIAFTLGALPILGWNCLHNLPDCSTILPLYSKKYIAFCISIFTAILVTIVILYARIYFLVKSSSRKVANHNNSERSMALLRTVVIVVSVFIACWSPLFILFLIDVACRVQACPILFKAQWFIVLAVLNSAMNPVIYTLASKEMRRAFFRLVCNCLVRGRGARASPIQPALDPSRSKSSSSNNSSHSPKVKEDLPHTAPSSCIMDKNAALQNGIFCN

Turning to `NC(CO)(CCCc1ccc(Sc2cccc(OCc3ccccc3)c2)cc1Cl)COP(=O)(O)O` (stereo not shown) [Example 236, 2-amino-5-[4-(3-benzyloxyphenylthio)-2-chlorophenyl]-2-hydroxymethylpentylphosphonate monoester], the pEC50 in assay [1] and in assay [2] was 7.00 to 8.00 in each case. The results for the “Induction effect of ERK activation on hS1P-expressing CHO cells (Activation rate (%) relative to the activated ERK at S1P10-6 mol/L)” value in assay [3] (Compound Conc. 1 nmol/L) and in assay [3] (Compound Conc. 10 nmol/L) were 8.0% and 119.5%, respectively. For the same compound, in assay [4] (Dose 0.03 mg/kg), 0.03 mg/kg produced 73% inhibition in vivo.

In the case of `NC(CO)(CCc1ccc(Sc2cccc(OCc3ccccc3)c2)cc1Cl)COP(=O)(O)O` (stereo not shown) [Example 237, 2-amino-4-[4-(3-benzyloxyphenylthio)-2-chlorophenyl]-2-hydroxymethylbutylphosphonate monoester], the pEC50 in assay [1] and in assay [2] was above 8.00 in each case. Besides, the “Induction effect of ERK activation on hS1P-expressing CHO cells (Activation rate (%) relative to the activated ERK at S1P10-6 mol/L)” value in assay [3] (Compound Conc. 1 nmol/L) is reported as 35.8%; in assay [3] (Compound Conc. 10 nmol/L), 80.7%. The compound further displayed an inhibition in vivo at 0.1 mg/kg in assay [4] (Dose 0.1 mg/kg) of 75%.
